Measurements from patent US20240091242A1, “LIPIDS THAT REDUCE LUNG DAMAGE, IMPROVE PULMONARY FUNCTION AND DECREASE PRO-INFLAMMATORY CYTOKINES” (Signpath Pharma, Inc., priority 2021, published 2024).

Test system: pro-inflammatory cytokines in the plasma
Experiment: Multiplex analysis of cytokine levels in plasma, murine LPS ARDS model
Format: in vivo, mouse
Details: for IL3 level in plasma / IL7 level in plasma / MCP-1 level in plasma / MIP-1alpha level in plasma / MIP-2 level in plasma: in pg/mL (unit assumed)
From the text: C57B16/N mice were obtained from Charles River Laboratories (Montreal, Quebec). Male mice, 20-25 g of body weight, were used throughout the studies. Animals were housed in specific pathogen[…]free conditions, and all experiments were approved by Institutional Animal Care and Use Committee (IPST_SL20200402-1). Animal studies are reported in compliance with […] guidelines.
All delivered mice were kept for one week as an acclimatization period prior to performing any experiments. Animals were housed in a maximum of two mice per cage under a 12[…]h light/12[…]h dark cycle at a temperature of ˜20-22° C. and 40-60% humidity. Food and water were available ad libitum. Each cage of mice was blindly assigned for different treatments or maintained as a control group according to the experimental design. The individual who carried out the experiments was not blinded as to treatment, but data analysis and experiments were otherwise blinded to avoid any bias.
In the ARDS group, mice received Escherichia coli O111:B4 lipopolysaccharide (50 μg in 0.05 mL saline, i.t.), while, in the control group, the animals received an instillation of saline (0.05 mL, i.t.). For intratracheal instillation, mice were slightly anesthetized with isoflurane.
The lipid SPPCT-800 was dissolved in water (low dose—2 mg/ml; high dose—20 mg/ml). For the 24-hour study, two treatment approaches were used. Mice received a single dose of SPPCT-800 (200 mg/kg, per gavage) as prevention (30 minutes before the LPS instillation), or as a single dose of either 20 mg/kg or 200 mg/kg as therapy (3-hour after the LPS instillation). For the 72-hour study, mice received a total of 8 treatments of SPPCT-800 (200 mg/kg) starting at 3-hour after the LPS instillation. Disease progression in mice was assessed by the evaluation of pulmonary functions, blood oxygen saturation, and body weight change. On the terminal day of each study (24 hours or 72 hours), measurement of cytokine levels in the plasma and BALF, and histopathology evaluations were done.
Multiplex analysis of mediators. The inventors quantified 31 different mediators in the BALF and plasma by using a Discovery Assay® (Mouse Cytokine and Chemokine Array 31-Plex (MD31), Eve Technologies Corp, Calgary, AB, Canada). The multiplex assay was performed at Eve Technologies using the Bio-Plex™ 200 system (Bio-Rad Laboratories, Inc., Hercules, CA, USA) and a Milliplex Mouse Cytokine/Chemokine kit (Millipore, St. Charles, MO, USA) according to Eve Tech protocol. The 31-plex consisted of Eotaxin, G-CSF, GM-CSF, IFN-γ, IL-1α, IL-1β, IL-2, IL-3, IL-4, IL-5, IL-6, IL-7, IL-9, IL-10, IL-12 (p40), IL-12 (p70), IL-13, IL-15, IL-17, IP-10, KC, LIF, MCP-1, M-CSF, MIG, MIP-1α, MIP-1β, MIP-2,RANTES, TNFα, and VEGF. The assay sensitivities of these markers range from 0.1 pg/mL to 33.3 pg/mL. Individual analytes' values and other assay details are available on Eve Technologies' website and in the Milliplex protocol.
Statistical Analysis. Results are expressed as means±SEM. Comparisons were made on normally distributed data using ANOVA, followed by a Fisher post hoc test to assess the difference between LPS+vehicle group with GraphPad Prism Software version 8.0 (San Diego, CA, USA). Differences were considered statistically significant when P values were less than 0.05. (* Shown difference versus Sham animals and # shown difference versus LPS+Vehicle group. * Means P<0.05, ** P<0.01, *** P<0.001 while # means P<0.05, ##P<0.01 and ###P<0.001).

[1] = 24-hours, Pre: SPP4040 30 minutes before LPS
[2] = 24-hours, Thera: SPP4040 3 hours after LPS
[3] = 72-hours, Thera: eight SPP4040 injections over 72 hours after LPS

CCCCCCCCCCCCCC(=O)OCC(COP(=O)([O-])OCC(COC(=O)CCC)OC(=O)CCC)OC(=O)CCCCCCCCCCCCC.CCCCCCCCCCCCCC(=O)OCC(COP(=O)([O-])OCC(COC(=O)CCC)OC(=O)CCC)OC(=O)CCCCCCCCCCCCC.[Mg+2] (centres unmarked) [SPPCT-800]
Eotaxin level in plasma [1]: 719 ± 138 | G-CSF level in plasma [1]: 21035 ± 2241 | GM-CSF level in plasma [1]: 12 ± 2 | IFN gamma level in plasma [1]: 1 ± 1 | IL1-alpha level in plasma [1]: 3196 ± 3107 | IL1-beta level in plasma [1]: 3.8 ± 0.7 | IL2 level in plasma [1]: 11 ± 3 | IL4 level in plasma [1]: 0.2 ± 0.1 | IL5 level in plasma [1]: 8 ± 2 | IL6 level in plasma [1]: 176 ± 29 | IL9 level in plasma [1]: 2 ± 1 | IL10 level in plasma [1]: 57 ± 8 | IL12 (p40) level in plasma [1]: 12 ± 1 | IL12 (p70) level in plasma [1]: 17 ± 7 | IL13 level in plasma [1]: 22 ± 3 | IL15 level in plasma [1]: 63 ± 15 | IL17 level in plasma [1]: 2.6 ± 0.3 | IP-10 level in plasma [1]: 790 ± 206 | KC level in plasma [1]: 1271 ± 224 | LIF level in plasma [1]: 1.3 ± 0.2 | LIX level in plasma [1]: 470 ± 145 | M-CSF level in plasma [1]: 12 ± 1 | MIG level in plasma [1]: 2486 ± 203 | MIP-1beta level in plasma [1]: 109 ± 8 | RANTES level in plasma [1]: 200 ± 28 | TNF-alpha level in plasma [1]: 14 ± 1 | VEGF level in plasma [1]: 0.5 ± 0.1 | IL3 level in plasma [1]: 0.9 ± 0.1 | IL7 level in plasma [1]: 8 ± 2 | MCP-1 level in plasma [1]: 86 ± 20 | MIP-1alpha level in plasma [1]: 88 ± 4 | MIP-2 level in plasma [1]: 138 ± 7 | Eotaxin level in plasma [2]: 855 ± 228 | G-CSF level in plasma [2]: 22915 ± 410 | GM-CSF level in plasma [2]: 11 ± 1 | IFN gamma level in plasma [2]: 1 ± 1 | IL1-alpha level in plasma [2]: 159 ± 39 | IL1-beta level in plasma [2]: 3.6 ± 0.6 | IL2 level in plasma [2]: 16 ± 1 | IL4 level in plasma [2]: 0.4 ± 0.2 | IL5 level in plasma [2]: 11 ± 2 | IL6 level in plasma [2]: 155 ± 30 | IL9 level in plasma [2]: 6 ± 2 | IL10 level in plasma [2]: 90 ± 32 | IL12 (p40) level in plasma [2]: 12 ± 2 | IL12 (p70) level in plasma [2]: 40 ± 19 | IL13 level in plasma [2]: 22 ± 2 | IL15 level in plasma [2]: 49 ± 16 | IL17 level in plasma [2]: 2.3 ± 0.6 | IP-10 level in plasma [2]: 605 ± 102 | KC level in plasma [2]: 764 ± 274 | LIF level in plasma [2]: 1.5 ± 0.2 | LIX level in plasma [2]: 547 ± 203 | M-CSF level in plasma [2]: 16 ± 4 | MIG level in plasma [2]: 2593 ± 317 | MIP-1beta level in plasma [2]: 120 ± 29 | RANTES level in plasma [2]: 270 ± 70 | TNF-alpha level in plasma [2]: 14 ± 1 | VEGF level in plasma [2]: 0.6 ± 0.1 | IL3 level in plasma [2]: 0.5 ± 0.7 | IL7 level in plasma [2]: 4 ± 1 | MCP-1 level in plasma [2]: 157 ± 62 | MIP-1alpha level in plasma [2]: 92 ± 7 | MIP-2 level in plasma [2]: 128 ± 5 | TNF-α levels in the plasma (in words) (72-hour study, P<0.05): markedly reduced | Eotaxin level in plasma [3]: 464 ± 252 | G-CSF level in plasma [3]: 1116 ± 502 | GM-CSF level in plasma [3]: 6 ± 2 | IFN gamma level in plasma [3]: 6 ± 2 | IL1-alpha level in plasma [3]: 63 ± 27 | IL1-beta level in plasma [3]: 6.8 ± 3.8 | IL2 level in plasma [3]: 34 ± 10 | IL4 level in plasma [3]: 0.6 ± 0.4 | IL5 level in plasma [3]: 2 ± 1 | IL6 level in plasma [3]: 76 ± 31 | IL9 level in plasma [3]: 3 ± 1 | IL10 level in plasma [3]: 5 ± 1 | IL12 (p40) level in plasma [3]: 8 ± 1 | IL12 (p70) level in plasma [3]: 11 ± 5 | IL13 level in plasma [3]: 23 ± 3 | IL15 level in plasma [3]: 40 ± 22 | IL17 level in plasma [3]: 4 ± 3 | IP-10 level in plasma [3]: 150 ± 34 | KC level in plasma [3]: 502 ± 150 | LIF level in plasma [3]: 0.5 ± 0.1 | LIX level in plasma [3]: 574 ± 445 | M-CSF level in plasma [3]: 5 ± 2 | MIG level in plasma [3]: 447 ± 137 | MIP-1beta level in plasma [3]: 55 ± 13 | RANTES level in plasma [3]: 19 ± 2 | TNF-alpha level in plasma [3]: 7 ± 2 | VEGF level in plasma [3]: 7.4 ± 2.4 | IL3 level in plasma [3]: 0.1 ± 0.1 | IL7 level in plasma [3]: 3 ± 1 | MCP-1 level in plasma [3]: 34 ± 6 | MIP-1alpha level in plasma [3]: 133 ± 11 | MIP-2 level in plasma [3]: 56 ± 17 | IL-1β, IL-2, IL-3, IL-4, IL-5, IL-6, IL-7, IL-9, IL-10, IL-12 (p40), IL-12 (p70), IL-13, IL-15 and IL-17 in plasma (in words) (at 24 hours): markedly reduced | MCP-1 in the plasma (in words) (at 24 hours and at 72 hours): inhibited | MIP-1α and MIP 1-β in the plasma (in words) (at 24 hours and at 72 hours): Suppressive effects | GM-CSF in the plasma (in words) (at 24 hours, 200 mg/kg preventive, 20 mg/kg therapeutic and 200 mg/kg therapeutic, P<0.001): highly significant depressions | TNF-α in the plasma (in words) (at 24 hours, all three single dose groups, P<0.001): markedly reduced | IFN-γ levels in the plasma (in words) (at 24 hours, all three single-dose groups, P<0.01): profoundly depressed | levels of plasma IL-1α (in words) (at 24 hours, any of the mouse groups): did not reduce | IFN-γ levels in the plasma (in words) (at 72 hours): Large reductions | GM-CSF in the plasma (in words) (at 72 hours, P<0.01): significant decreases | RANTES in the plasma (in words) (at both 24 hours and 72 hours): suppressed | MIG, IP10 and Eotaxin (in words) (marked suppression in the plasma or the BALF, but not in both): mixed | G-CSF, VEGF, KC, LIF, LIX and M-CSF in the plasma (in words) (mouse, in vivo): suppressed | number of the 15 interleukins tested in which major reductions were consistently noted (plasma and BALF): 14
